“And” between values parts separate entries of the source, which are not always exact repeats. Equal entries are not always repeated.
Tests used:
[1] = system: human PMN migration across T84 epithelial monolayers; experiment: PMN transepithelial migration assay, apical-to-basolateral direction, fMLP gradient, myeloperoxidase readout; type: cell-based
Method: Cell culture Approximately 350 epithelial monolayers were used for these studies. T84 intestinal epithelial cells (passages 70-95) were grown and maintained as confluent monolayers on collagen coated permeable support. Monolayers were grown on 0.33 cm^2 ring-supported polycarbonate filters (Costar Corp., Cambridge, Mass.) and utilized 6-14 days after plating as described in Example 2. Transepithelial resistance to passive ion flow was measured as described in Parkos C. A., et al. (1991). J. Clin. Invest. 88: 1605-1612); and Parkos C. A., et al. (1992). J. Cell. Biol. 117: 757-764). Inverted monolayers used to study migration of PMN in the basolateral-to-apical direction were constructed as described in Parkos C. A., et al. (1991). J. Clin. Invest. 88:1605-1612).
Migration assay: The PMN transepithelial migration assay has been detailed in Nash S., et al. (1987). J. Clin. Invest. 80: 1104-1113; Nash S., et al. (1991). J. Clin. Invest 87: 1474-1477); Parkos C. A., et al. (1991). J. Clin. Invest. 88: 1605-1612); and Parkos C. A., et al. (1992). J. Cell. Biol. 117: 757-764. Briefly, human PMN were isolated from normal human volunteers and suspended in modified HBSS (without Ca^2+ and Mg^2+, with 10 mM Hepes, pH 7.4, Sigma) at a concentration of 5×10^7/ml. Prior to addition of PMN, T84 monolayers were extensively rinsed in HBSS to remove residual serum components. Migration assays were performed by the addition of PMN (40 μl) to HBSS ([…]) in the upper chambers after chemoattractant (1 μM fMLP in HBSS) was added to the opposing (lower) chambers. Unless otherwise indicated, PMN were not washed free of LXA4 prior to addition to monolayers, and therefore, a five-fold dilution of lipoxin was present during the migration assay. For apical-to-basolateral migration experiments, PMN (2×10^6) were added at time 0. Migration in the basolateral-to-apical direction, while qualitatively similar, is substantially more efficient than in the apical-to-basolateral direction. (Parkos C. A., et al. (1991). J. Clin. Invest. 88: 1605-1612). Therefore, 5-fold fewer PMN (4×10^5) were added when migration proceeded in the basolateral-to-apical direction in order that baseline migration signals be approximately equivalent in both directions. (Parkos C. A., et al. (1991). J. Clin. Invest. 88: 1605-1612). Migration was allowed to proceed for 120 minutes, unless otherwise noted. All PMN transepithelial migration experiments were performed in a 37° C. room to ensure that epithelial monolayers, solutions, plasticware, etc., were maintained at uniform 37° C. temperature.
(§1) Migration was quantitated by assaying for the PMN azurophilic granule marker myeloperoxidase (MPO) as described previously (Parkos C. A., et al. (1991). J. Clin. Invest 88: 1605-1612). Following each migration assay, non-adherent PMN were extensively washed from the surface of the monolayer and PMN cell equivalents (PMN CE), estimated from a standard curve, were assessed as the number of PMN's associated with the monolayer, the number which had completely traversed the monolayer (ie. across the monolayer into the reservoir bath), as well as the total number of transmigrating PMN (the sum of monolayer and reservoir-associated PMN).
Data Presentation: Individual experiments were performed using large numbers of uniform groups of monolayers and PMN from individual blood donors on individual days. PMN isolation was restricted to five different blood donors (repetitive donations) over the course of these studies. Myeloperoxidase assay data were compared by two-factor analysis of variance (ANOVA) or by comparison of means using Student's t-Test PMN migration results are represented as PMN CE derived from a daily standard PMN dilution curve. Monolayer-associated PMN are represented as the number of PMN CE per monolayer and reservoir-associated PMN (ie. PMN which had completely traversed the monolayer into the lower chamber) are represented as the number of PMN CE/ml (total volume of 1 ml). […]

[2] = system: T84 intestinal epithelial cells; experiment: fMLP-induced PMN migration after LXA4 exposure of T84 epithelial monolayers; type: cell-based, human
Method: Lipoxins Synthetic LXA4, LXB4, and 11-trans-LXA4 were obtained from Cascade Biochem Ltd. (Berkshire, United Kingdom). Concentrations were determined from extinction coefficients as described in Sheppard K-A., et al. (1992). Biochimica et Biophysica Acta 1133: 223-234. All eicosanoid stock solutions were stored at −70° C. in […] (American Scientific Products). Eicosanoids were diluted in modified HBSS to a concentration of 1 μM prior to all experiments. PMN or T84 monolayers were exposed to lipoxins at indicated concentrations and allowed to incubate at 37° C. for the indicated period of time. Vehicle controls consisted of dilutions of the solvent (ethanol) equivalent to the highest concentration of lipoxin used in any given experiment (0.01%). […]
as §1, with “PMN). […]” for “PMN).”

[3] = molecular target: lipoxin binding sites on human PMN; conditions: reported; cited from earlier work
[4] = 10 nM LXA4, 30 min pre-exposure
[5] = PMN pre-exposed 10 nM LXA4 15 min 37°C, 1 μM fMLP, 120 min

Question: For `CCCCC[C@H](O)/C=C/C=C\C=C\C=C\[C@@H](O)[C@@H](O)CCCC(=O)O` (relative stereo) [LXA4, (5S, 6R, 15S)-trihydroxy-7,9,13-trans-11-cis-eicosatetraenoic acid], which “PMN in lower reservoirs” value ([1]; 0.001 nM LXA4, 15 min pre-exposure 37°C) is on record?
Answer: 13.71±4.14 ×10^4 PMN CE/ml

Question: And the “PMN in lower reservoirs” value ([1]; 0.01 nM LXA4, 15 min pre-exposure 37°C)?
Answer: 14.11±3.01 ×10^4 PMN CE/ml

Question: What about the “PMN in lower reservoirs” value ([1]; 0.1 nM LXA4, 15 min pre-exposure 37°C) of the same compound?
Answer: 15.43±4.65 ×10^4 PMN CE/ml

Question: What about the “PMN in lower reservoirs” value ([1]; 1 nM LXA4, 15 min pre-exposure 37°C) of the same compound?
Answer: 19.96±4.83 ×10^4 PMN CE/ml

Question: And the “total PMN migration after LXA4 washout” value ([1]; 10 nM LXA4 15 min, PMN then washed twice in HBSS)?
Answer: 14.5±0.3 ×10^4 PMN CE/ml

Question: What about the “total PMN migration (total MPO activity)” value ([1]; 10 nM LXA4 15 min, harvested 45 min after addition of PMN) of the same compound?
Answer: 1.51±0.12 ×10^4 PMN CE/ml

Question: What about the “fold increase in the total number of transmigrating PMN” value ([1]; 10 nM LXA4 15 min vs vehicle control) of the same compound?
Answer: ~2 fold

Question: And the “total PMN migration” value ([1]; 10 nM LXA4, 0 min pre-exposure)?
Answer: 16.61±3.56 ×10^4 total PMN CE/ml

Question: What about the “total PMN migration relative to vehicle control” value ([1]; 10 nM LXA4, 45 and 60 minutes pre-exposure) of the same compound?
Answer: returned to vehicle control values

Question: And the “increase in total PMN migration compared to vehicle controls” value (“increase in total PMN migration” for short) ([1]; 10 nM LXA4, 5 min pre-exposure)?
Answer: 50%

Question: And the “reservoir-associated PMN” value ([1]; 10 nM LXA4, 5 min pre-exposure)?
Answer: 18.02±3.35 ×10^4 PMN CE/ml

Question: What about the “increase in total PMN migration” value ([1]; 10 nM LXA4, 15 min pre-exposure) of the same compound?
Answer: 80% and 68%

Question: What about the “increase in total PMN migration” value [1, 4] of the same compound?
Answer: 51%

Question: What about the “reservoir-associated PMN” value [1, 4] of the same compound?
Answer: 19.64±3.54 ×10^4 PMN CE/ml

Question: And the “monolayer-associated PMN” value [1, 5]?
Answer: 6.93±1.77 ×10^4 PMN CE/monolayer and 7.55±0.71 ×10^4 PMN CE/monolayer

Question: What about the “reservoir-associated PMN (completely traversed the monolayer)” value [1, 5] of the same compound?
Answer: 11.02±2.91 ×10^4 PMN CE/ml and 19.96±3.18 ×10^4 PMN CE/ml and 20.38±4.83 ×10^4 PMN CE/ml

Question: What about the “total number of transmigrating PMN” value ([1]; PMN pre-exposed 10 nM LXA4 15 min, LXA4 present, 1 μM fMLP, 120 min) of the same compound?
Answer: 18.6±1.0 ×10^4 PMN CE/ml and 17.95±2.15 ×10^4 PMN CE/ml

Question: What about the “total number of transmigrating PMN” value ([2]; T84 monolayers incubated with 10 nM LXA4 15 min 37°C, LXA4 not removed, untreated PMN, 1 μM fMLP) of the same compound?
Answer: 15.7±1.8 ×10^4 PMN CE/ml

Question: What about the “total number of transmigrating PMN” value ([2]; T84 monolayers incubated with 10 nM LXA4 15 min, LXA4 removed by washing thrice with HBSS before PMN) of the same compound?
Answer: 14.3±1.1 ×10^4 PMN CE/ml

Question: And the Kd [3]?
Answer: 0.5 nM

— patent US8440718B2, “Modulation of inflammation related to columnar epithelia” (The Brigham and Women's Hospital, Inc., priority 1991, dated 2013)
